Source: ChEMBL document CHEMBL5131502, “Improving the treatment of Parkinson's disease: Structure-based development of novel 5-HT2A receptor antagonists/inverse agonists” (Eur J Med Chem, 2022)
In brackets after ≈: the same amount, converted by molar mass. Each block holds one molecule with its values, some of them ahead of it.

Tests used:
[1] = Dissociation constant, pKa of the compound; type: physicochemical
[2] = AUC(0 to 24 hrs) in human at 80 mg/kg/day by UHPLC/FT-ICR-MS analysis; type: ADME, organism-based; parameters: time < 24 hr, dose 80 mg/kg/day; conditions: in vivo
[3] = Plasma protein binding in monkey at 10 uM; type: ADME, cell-free, Macaca mulatta; conditions: rhesus monkey, read-out: PPB (converted)
[4] = molecular target: Cytochrome P450 2C9 (Homo sapiens, UniProt P11712); test: Inhibition of CYP2C9 (unknown origin); type: ADME
Sequence of Cytochrome P450 2C9 (P11712 whole entry): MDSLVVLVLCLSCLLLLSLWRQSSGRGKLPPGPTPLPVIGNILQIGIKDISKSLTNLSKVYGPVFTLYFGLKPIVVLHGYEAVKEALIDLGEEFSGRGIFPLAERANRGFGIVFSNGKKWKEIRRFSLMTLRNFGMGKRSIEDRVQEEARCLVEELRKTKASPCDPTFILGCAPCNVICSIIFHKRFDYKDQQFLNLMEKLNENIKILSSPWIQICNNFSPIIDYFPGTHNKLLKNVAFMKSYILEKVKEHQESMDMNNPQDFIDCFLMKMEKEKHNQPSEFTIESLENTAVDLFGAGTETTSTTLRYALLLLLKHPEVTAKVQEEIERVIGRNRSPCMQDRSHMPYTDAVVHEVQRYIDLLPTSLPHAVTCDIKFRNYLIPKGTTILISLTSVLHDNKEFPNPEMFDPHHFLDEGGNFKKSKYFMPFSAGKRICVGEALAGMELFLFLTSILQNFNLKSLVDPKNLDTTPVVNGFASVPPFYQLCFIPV

[5] = Drug metabolism in rat assessed as AUC(0 to 24 hrs) for AC- 423 metabolite at 100 mg/kg by UHPLC/FT-ICR-MS analysis; type: ADME, organism-based; parameters: time < 24 hr, dose 100 mg/kg; conditions: in vivo
[6] = Drug metabolism in mouse assessed as AUC(0 to 24 hrs) for AC-279 metabolite at 100 mg/kg by UHPLC/FT-ICR-MS analysis; type: ADME, organism-based; parameters: time < 24 hr, dose 100 mg/kg; conditions: in vivo
[7] = Plasma protein binding in human at 10 uM; type: ADME, cell-free; conditions: read-out: PPB (converted)
[8] = Metabolic stability in Sprague-Dawley rat liver microsomes assessed as intrinsic clearance at 100 uM preincubated for 10 mins followed by NADPH addition by LC/MS analysis; type: ADME, Microsome; conditions: read-out: CLH
[9] = Drug distribution in Sprague-Dawley rat brain at 6 micromol/kg administered via gavage measured after 2 hrs by LC-MS/MS analysis; type: ADME, tissue-based; conditions: in vivo, po, dose 6 µmol/kg
[10] = Metabolic stability in Sprague-Dawley rat liver microsomes assessed as compound remaining at 100 uM […] followed by NADPH addition by LC/MS analysis; type: ADME, Microsome; conditions: read-out: Stability
[11] = Drug metabolism in human assessed as AUC(0 to 24 hrs) for AC- 423 metabolite at 80 mg/kg/day by UHPLC/FT-ICR-MS analysis; type: ADME, organism-based; parameters: time < 24 hr, dose 80 mg/kg/day; conditions: in vivo
[12] = Aqueous solubility of compound at pH 7.4; type: physicochemical
[13] = Drug metabolism in mouse assessed as AUC(0 to 24 hrs) for AC- 527 metabolite at 100 mg/kg by UHPLC/FT-ICR-MS analysis; type: ADME, organism-based; parameters: time < 24 hr, dose 100 mg/kg; conditions: in vivo
[14] = AUC(0 to 24 hrs) in monkey at 100 mg/kg by UHPLC/FT-ICR-MS analysis; type: ADME, organism-based, Macaca mulatta; parameters: time < 24 hr, dose 100 mg/kg; conditions: rhesus monkey, in vivo
[15] = Drug metabolism in human assessed as AUC(0 to 24 hrs) for AC- 527 metabolite at 80 mg/kg/day by UHPLC/FT-ICR-MS analysis; type: ADME, organism-based; parameters: time < 24 hr, dose 80 mg/kg/day; conditions: in vivo
[16] = Drug metabolism in rat assessed as AUC(0 to 24 hrs) for AC-279 metabolite at 100 mg/kg by UHPLC/FT-ICR-MS analysis; type: ADME, organism-based; parameters: time < 24 hr, dose 100 mg/kg; conditions: in vivo
[17] = Metabolic stability in human liver microsomes assessed as intrinsic clearance at 100 uM preincubated for 10 mins followed by NADPH addition by LC/MS analysis; type: ADME, Microsome; conditions: read-out: CLH
[18] = Metabolic stability in Sprague-Dawley rat liver microsomes assessed as half life at 100 uM preincubated for 10 mins followed by NADPH addition by LC/MS analysis; type: ADME, Microsome
[19] = Metabolic stability in human liver microsomes assessed as half life at 100 uM preincubated for 10 mins followed by NADPH addition by LC/MS analysis; type: ADME, Microsome
[20] = Drug distribution in Sprague-Dawley rat brain at 6 micromol/kg administered via gavage measured after 0.5 hr by LC-MS/MS analysis; type: ADME, tissue-based; conditions: in vivo, po, dose 6 µmol/kg
[21] = Plasma protein binding in rat at 10 uM; type: ADME, cell-free; conditions: read-out: PPB (converted)
[22] = Metabolic stability in human liver microsomes assessed as compound remaining at 100 uM […] followed by NADPH addition by LC/MS analysis; type: ADME, Microsome; conditions: read-out: Stability
[23] = molecular target: Cytochrome P450 2D6 (Homo sapiens, UniProt P10635); test: Inhibition of CYP2D6 (unknown origin); type: ADME
Sequence of Cytochrome P450 2D6 (P10635 whole entry): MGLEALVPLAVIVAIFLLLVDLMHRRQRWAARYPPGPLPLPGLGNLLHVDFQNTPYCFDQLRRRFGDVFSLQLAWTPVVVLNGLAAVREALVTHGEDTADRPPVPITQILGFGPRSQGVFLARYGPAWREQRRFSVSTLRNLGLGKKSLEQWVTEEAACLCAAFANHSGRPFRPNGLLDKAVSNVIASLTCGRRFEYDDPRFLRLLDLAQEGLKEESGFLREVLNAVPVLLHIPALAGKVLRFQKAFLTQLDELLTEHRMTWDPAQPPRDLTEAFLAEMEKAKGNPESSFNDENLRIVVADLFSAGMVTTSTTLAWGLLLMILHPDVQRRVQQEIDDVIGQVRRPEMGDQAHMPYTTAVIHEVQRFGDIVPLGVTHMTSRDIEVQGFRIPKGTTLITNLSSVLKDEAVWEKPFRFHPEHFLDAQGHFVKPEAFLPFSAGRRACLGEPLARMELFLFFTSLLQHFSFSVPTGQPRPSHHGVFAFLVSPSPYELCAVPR

[24] = Drug distribution in Sprague-Dawley rat brain at 6 micromol/kg administered via gavage measured after 6 hrs by LC-MS/MS analysis; type: ADME, tissue-based; conditions: in vivo, po, dose 6 µmol/kg
[25] = AUC(0 to 24 hrs) in rat at 100 mg/kg by UHPLC/FT-ICR-MS analysis; type: ADME, organism-based; parameters: time < 24 hr, dose 100 mg/kg; conditions: in vivo
[26] = Drug metabolism in monkey assessed as AUC(0 to 24 hrs) for AC-279 metabolite at 100 mg/kg by UHPLC/FT-ICR-MS analysis; type: ADME, organism-based, Macaca mulatta; parameters: time < 24 hr, dose 100 mg/kg; conditions: rhesus monkey, in vivo
[27] = AUC(0 to 24 hrs) in mouse at 100 mg/kg by UHPLC/FT-ICR-MS analysis; type: ADME, organism-based; parameters: time < 24 hr, dose 100 mg/kg; conditions: in vivo
[28] = molecular target: Cytochrome P450 2C19 (Homo sapiens, UniProt P33261); test: Inhibition of CYP2C19 (unknown origin); type: ADME
Sequence of Cytochrome P450 2C19 (P33261 whole entry): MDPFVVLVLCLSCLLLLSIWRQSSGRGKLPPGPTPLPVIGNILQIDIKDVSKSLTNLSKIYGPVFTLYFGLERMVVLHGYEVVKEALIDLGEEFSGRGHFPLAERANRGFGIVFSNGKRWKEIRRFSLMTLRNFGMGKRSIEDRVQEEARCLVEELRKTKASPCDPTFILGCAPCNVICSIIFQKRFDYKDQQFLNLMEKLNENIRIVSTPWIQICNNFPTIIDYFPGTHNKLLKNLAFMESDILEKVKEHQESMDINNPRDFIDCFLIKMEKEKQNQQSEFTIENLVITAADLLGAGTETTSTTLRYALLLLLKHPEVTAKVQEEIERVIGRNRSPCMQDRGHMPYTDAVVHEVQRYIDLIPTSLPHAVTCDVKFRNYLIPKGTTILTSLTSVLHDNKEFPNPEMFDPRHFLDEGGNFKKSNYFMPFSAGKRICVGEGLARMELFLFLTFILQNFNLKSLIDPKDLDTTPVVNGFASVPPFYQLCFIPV

[29] = Drug metabolism in human assessed as AUC(0 to 24 hrs) for AC-279 metabolite at 80 mg/kg/day by UHPLC/FT-ICR-MS analysis; type: ADME, organism-based; parameters: time < 24 hr, dose 80 mg/kg/day; conditions: in vivo
[30] = Metabolic stability in dog liver microsomes assessed as compound remaining at 100 uM […] followed by NADPH addition by LC/MS analysis; type: ADME, Canis lupus familiaris, Microsome; conditions: read-out: Stability
[31] = Lipophilicity, logD of the compound at pH 7.4; type: physicochemical; conditions: buffer
[32] = Drug metabolism in monkey assessed as AUC(0 to 24 hrs) for AC- 423 metabolite at 100 mg/kg by UHPLC/FT-ICR-MS analysis; type: ADME, organism-based, Macaca mulatta; parameters: time < 24 hr, dose 100 mg/kg; conditions: rhesus monkey, in vivo
[33] = Drug metabolism in rat assessed as AUC(0 to 24 hrs) for AC- 527 metabolite at 100 mg/kg by UHPLC/FT-ICR-MS analysis; type: ADME, organism-based; parameters: time < 24 hr, dose 100 mg/kg; conditions: in vivo
[34] = Drug metabolism in monkey assessed as AUC(0 to 24 hrs) for AC- 527 metabolite at 100 mg/kg by UHPLC/FT-ICR-MS analysis; type: ADME, organism-based, Macaca mulatta; parameters: time < 24 hr, dose 100 mg/kg; conditions: rhesus monkey, in vivo
[35] = molecular target: T1, Cytochrome P450 1A2 (Homo sapiens, UniProt P05177); test: Inhibition of CYP1A2 (unknown origin); type: ADME
T1 sequence (P05177 whole entry): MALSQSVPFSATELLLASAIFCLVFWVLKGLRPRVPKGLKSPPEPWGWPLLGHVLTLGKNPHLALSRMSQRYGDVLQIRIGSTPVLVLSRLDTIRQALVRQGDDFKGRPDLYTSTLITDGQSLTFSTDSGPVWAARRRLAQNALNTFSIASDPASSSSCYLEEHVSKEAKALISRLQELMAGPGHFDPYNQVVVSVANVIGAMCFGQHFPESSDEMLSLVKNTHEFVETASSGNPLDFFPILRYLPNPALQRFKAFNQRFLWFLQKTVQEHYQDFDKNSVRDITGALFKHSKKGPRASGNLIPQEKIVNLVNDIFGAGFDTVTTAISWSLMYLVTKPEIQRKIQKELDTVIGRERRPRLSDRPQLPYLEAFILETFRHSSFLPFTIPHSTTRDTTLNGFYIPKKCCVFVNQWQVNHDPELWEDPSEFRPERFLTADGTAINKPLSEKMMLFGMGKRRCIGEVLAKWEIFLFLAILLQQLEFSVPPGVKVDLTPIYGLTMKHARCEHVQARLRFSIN

[36] = MRTlast in Sprague-Dawley rat at 4 mg/kg, IG administered as single dose measured upto 24 hrs by LC-MS/MS analysis; type: ADME, organism-based; conditions: in vivo, po
[37] = MRTlast in Sprague-Dawley rat at 2 mg/kg, IG administered as single dose measured upto 24 hrs by LC-MS/MS analysis; type: ADME, organism-based; conditions: in vivo, po
[38] = AUClast in Sprague-Dawley rat at 2 mg/kg, IG administered as single dose measured upto 24 hrs by LC-MS/MS analysis; type: ADME, organism-based; parameters: dose 2 mg/kg, time < 24 hrs, route ig; conditions: in vivo, po
[39] = Tmax in Sprague-Dawley rat at 4 mg/kg, IG administered as single dose measured upto 24 hrs by LC-MS/MS analysis; type: ADME, organism-based; conditions: in vivo, po
[40] = Half life in Sprague-Dawley rat at 2 mg/kg, IG administered as single dose measured upto 24 hrs by LC-MS/MS analysis; type: ADME, organism-based; conditions: in vivo, po
[41] = Half life in Sprague-Dawley rat at 4 mg/kg, IG administered as single dose measured upto 24 hrs by LC-MS/MS analysis; type: ADME, organism-based; conditions: in vivo, po
[42] = Tmax in Sprague-Dawley rat at 2 mg/kg, IG administered as single dose measured upto 24 hrs by LC-MS/MS analysis; type: ADME, organism-based; conditions: in vivo, po
[43] = AUClast in Sprague-Dawley rat at 4 mg/kg, IG administered as single dose measured upto 24 hrs by LC-MS/MS analysis; type: ADME, organism-based; parameters: dose 4 mg/kg, time < 24 hrs, route ig; conditions: in vivo, po
[44] = Cmax in Sprague-Dawley rat at 4 mg/kg, IG administered as single dose measured upto 24 hrs by LC-MS/MS analysis; type: ADME, organism-based; parameters: dose 4 mg/kg, time < 24 hrs, route ig; conditions: in vivo, po
[45] = Cmax in Sprague-Dawley rat at 2 mg/kg, IG administered as single dose measured upto 24 hrs by LC-MS/MS analysis; type: ADME, organism-based; parameters: dose 2 mg/kg, time < 24 hrs, route ig; conditions: in vivo, po
[46] = Cmax in Sprague-Dawley rat at 3 mg/kg, IG measured upto 24 hrs by LC-MS/MS analysis; type: ADME, organism-based; parameters: dose 3 mg/kg, time < 24 hrs, route ig; conditions: in vivo, po
[47] = Tmax in Sprague-Dawley rat at 3 mg/kg, IG measured upto 24 hrs by LC-MS/MS analysis; type: ADME, organism-based; conditions: in vivo, po
[48] = Apparent volume of distribution during terminal state in Sprague-Dawley rat at 3 mg/kg, IG measured upto 24 hrs by LC-MS/MS analysis; type: ADME, organism-based; conditions: in vivo, po, read-out: Vz/F
[49] = AUClast in Sprague-Dawley rat at 3 mg/kg, IG measured upto 24 hrs by LC-MS/MS analysis; type: ADME, organism-based; parameters: time < 24 hrs, dose 3 mg/kg, route ig; conditions: in vivo, po
[50] = Half life in Sprague-Dawley rat at 3 mg/kg, IG measured upto 24 hrs by LC-MS/MS analysis; type: ADME, organism-based; conditions: in vivo, po
[51] = MRTlast in Sprague-Dawley rat at 3 mg/kg, IG measured upto 24 hrs by LC-MS/MS analysis; type: ADME, organism-based; conditions: in vivo, po

pKa [1]: 8.44
AUC at 24 h [2]: 0.836 µg·h/mL
fraction unbound at 10 µM [3]: 0.053
IC50 [4]: > 100 µM
AUC [5]: 18.577 µg·h/mL
AUC [6]: 8.21 µg·h/mL
fraction unbound at 10 µM [7]: 0.045
CLint scaled at 100 µM [8]: 1.39 L/h/kg
Ct [9]: 171 nmol/kg
remaining at 100 µM [10]: 68.5%
AUC [11]: 0.112 µg·h/mL
solubility [12]: 0.021 mg/mL (≈ 49.1 µM)
AUC [13]: 0.388 µg·h/mL
AUC(0-t) at 24 h [14]: 7.73 µg·h/mL
AUC [15]: 0.236 µg·h/mL
AUC [16]: 4.32 µg·h/mL
CLint scaled at 100 µM [17]: 0.66 L/h/kg
half-life at 100 µM [18]: 1.78 h
half-life at 100 µM [19]: 1.96 h
Ct [20]: 136 nmol/kg
fraction unbound at 10 µM [21]: 0.037
remaining at 100 µM [22]: 70.7%
IC50 [23]: > 100 µM
Ct [24]: 36 nmol/kg
AUC(0-t) at 24 h [25]: 3.25 µg·h/mL
AUC [26]: 4.8 µg·h/mL
AUC(0-t) at 24 h [27]: 4.46 µg·h/mL
IC50 [28]: 49.8 µM
AUC [29]: 0.527 µg·h/mL
remaining at 100 µM [30]: 29.7%
logD [31]: 2.78
AUC [32]: 2.411 µg·h/mL
AUC [33]: 1.976 µg·h/mL
AUC [34]: 1.289 µg·h/mL
IC50 [35]: 52 µM
Compound: CC(C)COc1ccc(CNC(=O)N(Cc2ccc(F)cc2)C2CCN(C)CC2)cc1 [PIMAVANSERIN]

Compound: CN1CCC(N(Cc2ccc(F)cn2)C(=O)NCc2ccc(OCC(F)(F)F)cc2)CC1.O=C(O)C(O)C(O)C(=O)O
MRT last at 24 h [36]: 6.03 h
MRT last at 24 h [37]: 6.3 h
AUC(0-t) at 24 h [38]: 683 nM·h
Tmax [39]: 0.81 h
half-life [40]: 4.72 h
half-life [41]: 4.44 h
Tmax [42]: 0.9 h
AUC(0-t) at 24 h [43]: 1220 nM·h
Cmax [44]: 0.174 µM
Cmax [45]: 0.0877 µM

Cmax [46]: 0.0433 µM
Tmax [47]: 0.5 h
Vd/F [48]: 0.155 L/kg
AUC(0-t) at 24 h [49]: 78.6 nM·h
half-life [50]: 1.28 h
MRT last at 24 h [51]: 1.82 h
Compound: CC(C)COc1ccc(CNC(=O)N(Cc2ccc(F)cc2)C2CCN(C)CC2)cc1.O=C(O)C(O)C(O)C(=O)O
